From patent US20100035822A1, “PROLINE-RICH PEPTIDES, PHARMACEUTICAL COMPOSITION, USE OF ONE OR MORE PEPTIDES AND METHOD OF TREATMENT” (priority 2006, published 2010)
Square brackets hold non-standard residues; d marks the D form. Ends that are not written are not given here. pGlu = O=C1CC[C@@H](C(=O)O)N1

Columns and labels:
[1] = target: T1, argininosuccinate synthase (AsS) (Mus musculus, UniProt P16460); assay: Affinity chromatography of mouse kidney extract on peptide column; identification of the bound protein; assay type: binding; details: affinity column with SEQ ID NO 7 as ligand; crude mouse kidney extract
T1 construct: Cytosolic and membrane fractions of the renal extract (100 mg/ml total protein) were applied to separate columns; from tissue; host or cells: Balb-c mouse kidney, cytosolic and membrane fractions
T1 sequence (P16460 1-412): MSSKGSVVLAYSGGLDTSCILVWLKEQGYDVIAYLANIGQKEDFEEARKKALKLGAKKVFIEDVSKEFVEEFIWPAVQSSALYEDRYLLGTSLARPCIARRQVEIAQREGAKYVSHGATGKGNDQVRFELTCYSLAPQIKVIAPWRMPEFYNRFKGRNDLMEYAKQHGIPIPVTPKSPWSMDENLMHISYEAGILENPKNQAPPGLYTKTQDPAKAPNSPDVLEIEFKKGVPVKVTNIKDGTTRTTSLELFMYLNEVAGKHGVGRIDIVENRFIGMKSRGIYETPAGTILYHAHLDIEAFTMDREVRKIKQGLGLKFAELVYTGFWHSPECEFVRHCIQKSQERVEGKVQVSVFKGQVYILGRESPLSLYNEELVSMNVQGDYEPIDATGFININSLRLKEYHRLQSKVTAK
Procedure: Starting material were the cytosolic and plasma membrane crude extracts of mouse kidney cells homogenized in the buffer 10 mM Tris-HCl pH 7.5, 25 mM saccharose, 1 mM EDTA, and 1 mM PMSF (cytosolic fraction), or 1% Triton X-100 (plasma membrane fraction). Supernatants were dialyzed in 0.2 M NaHCO3, 0.5 M NaCl, pH 8.3, and separately applied to the affinity chromatography column Hitrap NHS-activated (GE Healthcare) coupled to 5 mg of peptide SEQ ID NO 7.
Preparing affinity columns. Columns were washed three times with 2 ml 1 mM HCl before homogeneous preparations of SEQ ID NO 7 (5 mg in 1 ml 0.2 M NaHCO3, 0.5 M NaCl, pH 8.3) were applied. After 30 min incubation at room temperature, peptides had been coupled, and the column was inactivated with buffer A (0.5 M ethanolamine, 0.5 M NaCl, pH 8.3), and washed with 0.2 M NaHCO3, 0.5 M NaCl, pH 8.3, and stored at 4° C. in 50 mM Na2HPO4, 0.1%, NaN3, pH 7.0. The columns were called HiTrap-SEQ. ID NO 7. […]
Affinity chromatography and analysis of the retained proteins by SDS-PAGE. […] Protein concentration (mg/ml) was determined by the method of Bradford (Bradford, M. M. A rapid and sensitive method for the quantitation of microgram quantities of protein utilizing the principle of protein-dye binding. Anal. Biochem. 72: 248-254, 1976) with the Protein Assay reagent from BioRad. […]

[2] = test system: SK-N-AS cells (human neuroblastoma); assay: Free intracellular Ca2+ concentration in SK-N-AS cells (fluo-3 AM, confocal microscopy); assay type: cell-based
Procedure: In these experiments the variation in free intracellular calcium [Ca^2+]i concentration was measured in SK-N-AS cells (human neuroblastoma, ATCC No. CRL-2137) after addition of 1 μmolar of peptides SEQ ID NO 1 or SEQ ID NO 8, or of 1 μmolar captopril. Cells were kept in DMEM (Dulbecco Modified Medium), supplemented with 10% fetal bovine serum (FBS) and 1% non-essential amino acids, at 5% CO2 atmosphere, at 37° C., and 95% relative humidity. Cells were treated with trypsin, and replicated at adequate cell concentrations.
Measurements of variation in the concentration of free [Ca^2+]i were performed with a confocal microscope LSM 510 (Zeiss, Jena, Germany), as described by Martins et al., (Martins et al., Neuronal differentiation of P19 embryonal carcinoma cells modulates kinin B2 receptor gene expression and function. J. Biol. Chem. 280: 19576-19586, 2005). Approximately 5×10^4 SK-N-AS cells were plated on 60 mm plates 24 hours prior to measurement, and then treated with 4 μM fluo-3 AM (Invitrogen Corporation) in 0.5% DMSO and 0.1% non-ionic surfactant pluronic acid F-127 for 30 minutes at 37° C. Cells were washed with DMEM containing 10% FBS, and transferred to defined medium (5 μg/ml insulin, 30 μg/ml transferrin, 20 μM ethanolamine, 30 nM sodium selenite, 1 μM sodium pyruvate, 1% non-essential amino acids, 1 mM glutamine, 100 μg/ml penicillin, 100 μg/ml streptomycin, 10 mM HEPES pH 7.4 in DMEM). The fluorescent fluo-3 AM was excited at 488 nm, and the fluorescence measured at 526 nm.
Variations in the [Ca^2+]i were measured in non-stimulated cells, and in cells stimulated with peptides SEQ ID NO 1 or SEQ ID NO 8, or with captopril (Sigma Aldrich). Increase of fluorescence was monitored for 2 minutes, and images were acquired in 256×256 pixels every second. At the end of each experiment, 5 μM ionophore (4-Br-A23187) were added, followed by 10 mM EGTA, or 20 μM digitonin to determine maximum and minimum fluorescence, Fmax and Fmin respectively, as described by Grynkiewicz et al., (1985).
Intracellular calcium concentrations [Ca^2+]i, related to fluorescence (F) values obtained after addition of peptides SEQ ID NO 1 or SEQ ID NO 8, were calculated with the equation: [Ca^2+]=Kd(F−Fmin)/(Fmax−F), assuming Kd=450 nM for fluo-3 AM (Hallett et al., 1990).

[3] = test system: renal nitric oxide synthase (NOS); assay: Activation of kidney NOS in mice (3H-arginine to 3H-citrulline conversion); assay type: in vivo, mouse; details: HOE 140 10 μg/Kg for 1 hour
Procedure: Male Swiss albinos weighing 22-25 g were injected intraperitoneally with: (1) 50 μl 0.9% NaCl (basal level control), or with 0.9% NaCl supplemented with LPS (2 mg/Kg) (positive control); (2) SEQ ID NO 8 (0.21, 0.91, and 3.47 mg/Kg); (3) SEQ ID NO 8 (0.91 mg/Kg) injected into animals pre-treated via intraperitoneally with L-NAME (3 mg/Kg for 1 h); (4) SEQ ID NO 8 (0.91 mg/Kg) injected into animals pre-treated via intraperitoneally with HOE140 (10 μg/Kg for 1 h); (5) captopril (0.21, 0.91, and 3.47 mg/Kg). After 5, 15, 30, 60, 120, and 180 min, animals were killed, their kidneys removed and stored at −70° C. Animals of group 3 and 4 were killed 30 minutes after administration of the oligopeptide.
NOS activity was measured according to Bredt and Snyder [Bredt D S and Snyder S H. Isolation of nitric oxide synthetase, a calmodulin-requiring enzyme. Proc. Natl. Acad. Sci. USA, 87, 682-685, 1990], and is based on estimating the enzymatic activity of the conversion of L-arginine into L-citrulline using ^3H-arginine as a reference for the conversion.
The kidneys were minced in homogenizing buffer, pH 7.4 (20 mM HEPES, 0.32 M saccharose, 1 mM DTT, 0.1 mM EDTA, 1 mM PMSF), and sonicated. Protein dosage was performed according to Bradford (1976), followed by a chromatography step in a 300 μL Dowex 50WX8-400 column.
For the enzymatic assay, 80 μg total protein from each sample were incubated for 60 minutes at 37° C. in 200 μL buffer (30 mM HEPES, 1 mM EDTA, 1.25 mM CaCl2, 1 mM NADPH, 10 μg/mL calmodulin, 4 μM FAD, 4 μM FMN, 25 μM BH4, 120 nM arginine, 0.5 μCi ^3H-arginine). The reaction was stopped by the addition of 1 ml 20 mM HEPES, and incubation in ice bath. ^3H-citrulline was separated from ^3H-arginine by ion-exchange chromatography in a 300 μL Dowex 50WX8-400 column. Radioactivity of the eluates was measured in a beta-counter. After converting cpm (counts per minute) into dpm (disintegration per minute), the specific activity of the nitric oxide synthase (NOS) was calculated using the following equation: […]

[4] = target: T2, argininosuccinate synthase (AsS) (mouse, UniProt P16460 1-412); assay: cell-based or functional assay
T2 sequence: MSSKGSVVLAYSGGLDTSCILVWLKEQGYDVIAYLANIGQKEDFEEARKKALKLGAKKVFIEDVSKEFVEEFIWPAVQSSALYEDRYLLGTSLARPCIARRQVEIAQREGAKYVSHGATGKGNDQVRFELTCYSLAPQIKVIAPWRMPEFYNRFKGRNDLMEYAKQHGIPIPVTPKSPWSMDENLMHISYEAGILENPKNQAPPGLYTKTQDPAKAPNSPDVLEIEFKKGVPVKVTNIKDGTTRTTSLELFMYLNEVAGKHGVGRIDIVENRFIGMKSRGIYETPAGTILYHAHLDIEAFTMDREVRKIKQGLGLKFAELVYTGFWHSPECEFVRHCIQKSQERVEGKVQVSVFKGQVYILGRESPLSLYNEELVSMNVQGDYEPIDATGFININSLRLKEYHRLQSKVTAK

## ENWPHPQIPP [SEQ ID NO 7]
[1]
  binding to the approx. 46 kDa protein (AsS) of mouse kidney extract: bound
[2]
  time from the peak until the [Ca2+]i plateau: 20 s
[2]; immediately after addition of the peptide
  [Ca2+]i response peak: ~250 nM

## HOE 140
[3]
  effect of B2 receptor blockade on the NOS activity increase caused by SEQ ID NO 8: not able to prevent the increase

## [pGlu]NWPHPQIPP [oligopeptide SEQ ID NO 8]
[4]
  production rate of phosphate (enzymatic activity of the AsS): ~2.5 fold
